Results: the RepoRT retention time repository
Structures can show the parent of a compound that is named as a salt.

experiment: RP, Thermo Scientific Hypersil GOLD, 1.9 µm, 40 °C, 0.4 mL/min; A: water + 0.1% formic acid, pH 3; B: acetonitrile + 0.1% formic acid, pH 3; gradient (min/%B) 0/0 1/0 11/100 13/100 14/0 16/0; details: stereoisomer not certain

First: Cc1cc2nc[nH]c2cc1C [5-6 DIMETHYLBENZIMIDAZOLE]
Second: Nc1ncnc2nc[nH]c12 [ADENINE]
The LC retention time of the first is 6.8-fold higher: 5.05 min for the first, 0.74 min for the second.

`NCC(=O)CCC(=O)O` [5-AMINOLEVULINATE] and `NCCC(=O)O` [BETA-ALANINE] are within 1.5-fold of each other in LC retention time: 0.64 min for the first, 0.62 min for the second.

`NCCCCC(=O)O` [5-AMINOPENTANOATE] and `NC(CCCC(=O)O)C(=O)O` (stereo not drawn) [AMINOADIPATE] are within 1.5-fold of each other in LC retention time: 0.71 min for the first, 0.67 min for the second.

`Nc1cncc(C(=O)O)c1` [5-Aminopyridine-3-carboxylic acid] and `O=C(O)c1cncc(O)c1` [5-Hydroxynicotinic acid] are within 1.5-fold of each other in LC retention time: 0.74 min for the first, 0.83 min for the second.

`NCC(O)CCC(N)C(=O)O` (stereo not drawn) [5-HYDROXYLYSINE] and `NC(=O)NCCCC(N)C(=O)O` (stereo not drawn) [CITRULLINE] are within 1.5-fold of each other in LC retention time: 0.57 min for the first, 0.65 min for the second.

First: O=c1[nH]cc(CO)c(=O)[nH]1 [5-HYDROXYMETHYLURACIL]
Second: Cn1cnc2[nH]c(=O)[nH]c(=O)c21 [7-Methylxanthine]
The LC retention time of the first is 2.6-fold lower: 0.82 min for the first, 2.15 min for the second.

First: NC(Cc1c[nH]c2ccc(O)cc12)C(=O)O (stereo not drawn) [5-HYDROXYTRYPTOPHAN]
Second: Oc1ccc2[nH]ccc2c1 [5-Hydroxyindole]
The LC retention time of the first is 2.4-fold lower: 1.99 min for the first, 4.72 min for the second.

`Cc1cnc(=O)[nH]c1N` [5-METHYLCYTOSINE] and `Nc1ccnc(=O)[nH]1` [CYTOSINE] are within 1.5-fold of each other in LC retention time: 0.7 min for the first, 0.65 min for the second.

Compared with `O=C1CCCCO1` [5-VALEROLACTONE], `CN1C(=O)CCC1c1cccnc1` (stereo not drawn) [Cotinine] is 7.9-fold lower in LC retention time: 6.54 min for the first, 0.83 min for the second.

First: O=C(O)c1ccc(CO)o1 [5-hydroxymethyl-2-furancarboxylic acid]
Second: Nc1ccccc1C(=O)O [ANTHRANILATE]
The LC retention time of the first is 1.5-fold lower: 3.49 min for the first, 5.29 min for the second.

`CC(CCC(=O)O)C1CCC2C3CCC4CC(=O)CCC4(C)C3CCC12C` (stereo not drawn) [5b-cholanic acid-3-ONE] and `CC(CCC(=O)O)C1CCC2C3CCC4CC(O)CCC4(C)C3CC(=O)C12C` (stereo not drawn) [5b-cholanic acid-3a-OL-12-ONE] are within 1.5-fold of each other in LC retention time: 10.7 min for the first, 8.76 min for the second.

`CC(CCC(=O)O)C1CCC2C3C(O)C(O)C4CC(O)CCC4(C)C3CCC12C` (stereo not drawn) [5b-cholanic acid-3a-6a-7a-TRIOL] and `CC(CCC(=O)O)C1CCC2C3C(O)CC4CC(O)CCC4(C)C3CCC12C` (stereo not drawn) [CHENODEOXYCHOLATE] are within 1.5-fold of each other in LC retention time: 7.96 min for the first, 9.15 min for the second.

Going from `Nc1ccc(C(=O)O)cn1` [6-Aminopyridine-3-carboxylic acid] to `O=C(O)c1ccc(=O)[nH]c1` [6-HYDROXYNICOTINATE], the LC retention time rises from 0.87 min to 1.5 min (1.7-fold).

`NCCc1cc(O)c(O)cc1O` [6-HYDROXYDOPAMINE] and `NCCC(=O)NC(Cc1cnc[nH]1)C(=O)O` (stereo not drawn) [CARNOSINE] are within 1.5-fold of each other in LC retention time: 0.77 min for the first, 0.59 min for the second.

`CC(O)C(O)C1=Nc2c(nc(N)[nH]c2=O)NC1` [7-8-Dihydro-L-biopterin] and `Cn1cnc2nc(N)[nH]c(=O)c21` [7-methylguanine] are the same in LC retention time: 0.82 min for the first, 0.82 min for the second.

`Cn1c[n+](C2OC(CO)C(O)C2O)c2nc(N)[nH]c(=O)c21` (stereo not drawn) [7-Methylguanosine] and `Nc1ccn(C2OC(CO)C(O)C2O)c(=O)n1` (stereo not drawn) [CYTIDINE] are within 1.5-fold of each other in LC retention time: 0.83 min for the first, 0.78 min for the second.

`O=C(O)CCCCCCCCCO` [10-HYDROXYDECANOATE] and `O=C(O)CCCCCCCC(=O)O` [AZELATE] are within 1.5-fold of each other in LC retention time: 6.79 min for the first, 6.12 min for the second.

Compared with `CC(=O)C1(O)CCC2C3CC=C4CC(O)CCC4(C)C3CCC21C` (stereo not drawn) [17a-Hydroxypregnenolone], `CC(=O)C1(O)CCC2C3CCC4=CC(=O)CCC4(C)C3CCC21C` (stereo not drawn) [17a-Hydroxyprogesterone] is 13-fold higher in LC retention time: 0.67 min for the first, 8.44 min for the second.

First: CCCCCCCCC=CCCCCCCCC(=O)OCC(O)COP(=O)([O-])OCC[N+](C)(C)C (stereo not drawn) [18-1_LysoPC]
Second: CCCCCCCCCCCCCCC=COCC(O)COP(=O)([O-])OCC[N+](C)(C)C (stereo not drawn) [C16_PlasmLPC]
The LC retention time of the first is 17-fold lower: 0.61 min for the first, 10.5 min for the second.

`CC(=O)C1(O)CCC2C3CCC4=CC(=O)CCC4(C)C3C(O)CC21C` (stereo not drawn) [21-Deoxycortisol] and `CC12CCC(=O)C=C1CCC1C2C(O)CC2(C)C1CCC2(O)C(=O)CO` (stereo not drawn) [CORTISOL] are within 1.5-fold of each other in LC retention time: 7.35 min for the first, 6.73 min for the second.

`CC(CCCC(C)(C)O)C1CCC2C3CC=C4CC(O)CCC4(C)C3CCC12C` (stereo not drawn) [25-HYDROXYCHOLESTEROL] and `CC(CCC(=O)O)C1CCC2C3C(O)CC4CC(O)CCC4(C)C3CC(O)C12C` (stereo not drawn) [CHOLATE] are within 1.5-fold of each other in LC retention time: 11.9 min for the first, 8.17 min for the second.

`NCCP(=O)(O)O` [(2-AMINOETHYL)PHOSPHONATE] and `O=P(O)(O)OC(CO)CO` [BETA-GLYCEROPHOSPHATE] are within 1.5-fold of each other in LC retention time: 0.63 min for the first, 0.67 min for the second.

Going from `C/C(=C\C(=O)O)CC(=O)O` [(E)-3-Methylglutaconic acid] to `CC(O)(CC(=O)O)C(=O)O` (stereo not drawn) [CITRAMALATE], the LC retention time falls from 4.1 min to 1.23 min (3.3-fold).

`C=C(C)C1CC=C(C)C(=O)C1` [(R)-(-)-Carvone] and `C=C(C)C1CC=C(CO)CC1` [(S)-(-)-Perillyl alcohol] are within 1.5-fold of each other in LC retention time: 8.19 min for the first, 8.07 min for the second.

`Nc1ncnc2c1ncn2C1OC(CO)C2OP(=O)(O)OC21` (stereo not drawn) [ADENOSINE 2'-3'-CYCLIC PHOSPHATE] and `Nc1ncnc2c1ncn2C1OC(CO)C(O)C1O` (stereo not drawn) [ADENOSINE] are within 1.5-fold of each other in LC retention time: 0.83 min for the first, 0.86 min for the second.

`Nc1ncnc2c1ncn2C1OC(COP(=O)(O)O)C(O)C1O` (stereo not drawn) [ADENOSINE-MONOPHOSPHATE] and `Nc1ncnc2c1ncn2C1OC(CO)C(OP(=O)(O)O)C1O` (stereo not drawn) [Adenosine 3'-monophosphate free acid] are within 1.5-fold of each other in LC retention time: 0.77 min for the first, 0.82 min for the second.

Compared with `Nc1ncnc2c1ncn2C1OC(COP(=O)(O)OP(=O)(O)OC2OC(CO)C(O)C(O)C2O)C(O)C1O` (stereo not drawn) [ADP-GLUCOSE], `NC(=O)c1ccc[n+](C2OC(COP(=O)(O)OP(=O)(O)OCC3OC(n4cnc5c(N)ncnc54)C(O)C3O)C(O)C2O)c1` (stereo not drawn) [BETA-NICOTINAMIDE ADENINE DINUCLEOTIDE] is 1.6-fold lower in LC retention time: 1.27 min for the first, 0.78 min for the second.

`NCCCCN=C(N)N` [AGMATINE SULFATE] and `NCCCCCN` [CADAVERINE] are within 1.5-fold of each other in LC retention time: 0.54 min for the first, 0.55 min for the second.

First: NC(=O)c1ncn(C2OC(COP(=O)(O)O)C(O)C2O)c1N (stereo not drawn) [AICAR]
Second: Nc1ccn(C2OC(COP(=O)(O)OP(=O)(O)O)C(O)C2O)c(=O)n1 (stereo not drawn) [CYTIDINE DIPHOSPHATE]
The LC retention time of the first is 1.6-fold lower: 0.76 min for the first, 1.2 min for the second.

First: NC(=O)NC1NC(=O)NC1=O (stereo not drawn) [ALLANTOIN]
Second: O=C(O)CCCCC1SCC2NC(=O)NC21 (stereo not drawn) [BIOTIN]
The LC retention time of the first is 7.7-fold lower: 0.67 min for the first, 5.15 min for the second.

`CC(C)(O)C(=O)O` [ALPHA-HYDROXYISOBUTYRATE] and `CC(=O)OCC(=O)O` [Acetoxyacetic acid] are within 1.5-fold of each other in LC retention time: 1.62 min for the first, 1.93 min for the second.

`CC(CN)C(=O)O` (stereo not drawn) [AMINOISOBUTANOATE] and `NC(CS(=O)(=O)O)C(=O)O` (stereo not drawn) [CYSTEATE] are within 1.5-fold of each other in LC retention time: 0.67 min for the first, 0.65 min for the second.

Compared with `Nc1ccccc1S(=O)(=O)O` [ANILINE-2-SULFONATE], `NCc1ccccc1` [BENZYLAMINE] is 2.5-fold higher in LC retention time: 1.42 min for the first, 3.59 min for the second.

`Cn1cncc1CC(NC(=O)CCN)C(=O)O` (stereo not drawn) [ANSERINE] and `NC(CS)C(=O)NCC(=O)O` (stereo not drawn) [CYS-GLY] are within 1.5-fold of each other in LC retention time: 0.57 min for the first, 0.59 min for the second.

`CCCCCCCCCCCCCCCCCCCC(=O)O` [ARACHIDATE] and `CCCCCCCCCCCCCCCCCCOCC(O)COP(=O)([O-])OCC[N+](C)(C)C` (stereo not drawn) [C18_LysoPAF] are within 1.5-fold of each other in LC retention time: 13.5 min for the first, 10.4 min for the second.

`O=C1OC(C(O)CO)C(O)=C1O` (stereo not drawn) [ASCORBATE] and `Nc1ccn(C2OC(CO)C3OP(=O)(O)OC32)c(=O)n1` (stereo not drawn) [CYTIDINE 2'-3'-CYCLIC PHOSPHATE] are within 1.5-fold of each other in LC retention time: 0.78 min for the first, 0.7 min for the second.

Compared with `Nc1ccc(C(=O)NCC(=O)O)cc1` [Aminohippuric acid], `CN(CC(=O)O)C(=N)N` [CREATINE] is 2.7-fold lower in LC retention time: 1.77 min for the first, 0.66 min for the second.

`CC1=C(/C=C/C(C)=C/C=C/C(C)=C/C=C/C=C(C)/C=C/C=C(C)/C=C/C2=C(C)CCCC2(C)C)C(C)(C)CCC1` [BETA-CAROTENE] and `C=C(C)C1CCC2(C(=O)O)CCC3(C)C(CCC4C5(C)CCC(O)C(C)(C)C5CCC43C)C12` (stereo not drawn) [Betulinic acid] are within 1.5-fold of each other in LC retention time: 9.23 min for the first, 11.2 min for the second.

`C[N+](C)(C)CC(=O)[O-]` [BETAINE] and `C[N+](C)(C)CCO` [CHOLINE] are within 1.5-fold of each other in LC retention time: 0.65 min for the first, 0.62 min for the second.

Compared with `C=CC1=C(C)C(=Cc2[nH]c(Cc3[nH]c(C=C4NC(=O)C(C)=C4C=C)c(C)c3CCC(=O)O)c(CCC(=O)O)c2C)NC1=O` [BILIRUBIN], `C=CC1=C(C)C(C=c2[nH]c(=Cc3[nH]c(C=C4NC(=O)C(C)=C4C=C)c(C)c3CCC(=O)O)c(CCC(=O)O)c2C)=NC1=O` [BILIVERDIN] is 1.6-fold lower in LC retention time: 12.6 min for the first, 7.99 min for the second.

Compared with `CCCCC(CC)COC(=O)c1ccccc1C(=O)OCC(CC)CCCC` (stereo not drawn) [BIS(2-ETHYLHEXYL)PHTHALATE], `NC(CCSCC(N)C(=O)O)C(=O)O` (stereo not drawn) [CYSTATHIONINE] is 21-fold lower in LC retention time: 13 min for the first, 0.61 min for the second.

Going from `Cn1c(=O)c2c(ncn2C)n(C)c1=O` [CAFFEINE] to `Nc1nc2c(ncn2C2OC3COP(=O)(O)OC3C2O)c(=O)[nH]1` (stereo not drawn) [CYCLIC GMP], the LC retention time falls from 4.85 min to 1.29 min (3.8-fold).

`NCCOP(=O)(O)OP(=O)(O)OCC1OC(n2ccc(N)nc2=O)C(O)C1O` (stereo not drawn) [CDP-ETHANOLAMINE] and `C[N+](C)(C)CCOP(=O)(O)OP(=O)([O-])OCC1OC(n2ccc(N)nc2=O)C(O)C1O` (stereo not drawn) [CITICOLINE] are the same in LC retention time: 0.64 min for the first, 0.64 min for the second.

`O=C(O)CC(O)(CC(=O)O)C(=O)O` [CITRATE] and `NC(CSSCC(N)C(=O)O)C(=O)O` (stereo not drawn) [CYSTINE] are within 1.5-fold of each other in LC retention time: 0.9 min for the first, 0.61 min for the second.

`CC12CCC(=O)C=C1CCC1C2CCC2(C)C1CCC2(O)C(=O)CO` (stereo not drawn) [CORTEXOLONE] and `CC12CCC(=O)C=C1CCC1C2C(=O)CC2(C)C1CCC2(O)C(=O)CO` (stereo not drawn) [CORTISONE] are within 1.5-fold of each other in LC retention time: 7.48 min for the first, 6.81 min for the second.

`CC12CCC(=O)C=C1CCC1C2C(O)CC2(C)C(C(=O)CO)CCC12` (stereo not drawn) [CORTICOSTERONE] and `CC(=O)OCC(=O)C1(O)CCC2C3CCC4=CC(=O)CCC4(C)C3C(O)CC21C` (stereo not drawn) [CORTISOL 21-ACETATE] are within 1.5-fold of each other in LC retention time: 7.47 min for the first, 7.67 min for the second.

In the case of `CN1CC(=O)NC1=N` [CREATININE], the LC retention time is reported as 0.62 min.
